# Experimental data reported in patent US12318398B2, “MST1 kinase inhibitor and use thereof” (priority 2018, dated 2025).
# Like-named read-outs stand apart in the source and are kept apart here.
# What was measured:
# C57BL/6 mice = test: Liver injury repair experiment (paracetamol/APAP-induced); format: in vivo
# Experimental: C57BL/6 mice, male, 20 g, were maintained in a SPF animal room. Thirty C57BL/6 mice were fasted for 12 hours overnight, and 5 mice of which were intraperitoneally injected with normal saline to act as a normal control group, and the other 25 mice were intraperitoneally injected with paracetamol (APAP) (purchased from Sigma)-600 mg/kg, and randomly divided into 5 groups after 30 minutes, wherein the 5 groups include vehicle (5% DMSO in water), compound 1-1-po, compound 1-2-po, compound 1-4-po, XMU-MP-1-ip groups. Mice in the vehicle group were administered intragastrically with vehicle control; mice in the compound 1-1-po, compound 1-2-po, compound 1-4-po groups were administered intragastrically with compound 1 at 1 mg/kg, 2 mg/kg or 4 mg/kg, respectively; mice in the XMU-MP-1-ip group were intraperitoneally administered with the control compound XMU-MP-1 at 1 mg/kg. After the administration, the body weight of the mice was monitored and the survival status of the mice was observed.
# MST1 = MST1 (Homo sapiens (Human), UniProt Q13043); test: In vitro enzyme activity test (ADP-GLO); format: biochemical
# Experimental: The IC50 values of the compounds against MST1 were determined. The protein kinase MST1 and the substrate were obtained from commercial sources.
# 5.4 μL of protein kinase MST1 diluted to a certain concentration (final concentration was 2.5 ng/μL) and 1 μL of serially diluted drug compounds and control compound XMU-MP-1 were taken to react at room temperature for 10 minutes (final drug concentrations were 10 μM, 1 μM, 0.3 μM, 0.1 μM, 0.03 μM, 0.01 μM, 0.003 μM, 0.001 μM, respectively).
# 6 μL of a mixture of ATP (with a final reaction concentration of 50 μM) and substrate was added to the above reaction tube to react at 37° C. for 1 hour. The reaction buffer was 40 mM Tris, 7.5; 20 mM MgCl2; 0.1 mg/ml BSA; 50 μM DTT.
# 5 μL of the kinase mixture after the reaction was taken to a 384-well plate, and 5 μL of ADP-GLO™ reagent was added thereto. After reaction at room temperature for 40 minutes, the kinase reaction was terminated and the remaining ATP was consumed.
# 10 μL of a kinase detection reagent was added to convert ADP into ATP, and a coupled luciferase/luciferin reaction was utilized to detect the newly synthesized ATP. Envision was used to read and plot the data, and calculate the IC50 value.
# PDX1 = test: Effect on insulin secretion transcription factor PDX1 in pancreatic β cells; format: cell-based, mouse; details: MIN-6 cells, 72 hours, 33.3 mM glucose
# Experimental: (§1) The effects of compound 1 and the control compound XMU-MP-1 on MST1 signaling pathway such as autophosphorylation of MST1, apoptosis signaling pathway such as cleavage of four proteins Caspase9/7/3 and PARP, expression of BIM, BAX, BCL-2, BCL-XL protein, proliferation-related signaling pathway such as autophosphorylation of AKT and ERK, and phosphorylation and protein expression of insulin secretion transcription factor PDX1 were tested in mouse pancreatic β-cells, MIN-6 cells (Hunan Fenghuishengwu technology Co., Ltd.). Compound 1 of different concentrations (0 μM, 0.3 μM, 1 μM, 3 μM in DMSO) and XMU-MP-1 of 1 μM (in DMSO) were used to treat the cell line for 72 hours in a medium with a glucose content of 33.3 mM, respectively. One of the control DMSO group involved 5.5 mM glucose and the other one involved 33.3 mM glucose. The samples were collected.
# [1] = tested on: autophosphorylation of MST1; test: Effect on MST1 signaling pathway of pancreatic β cells; format: cell-based, mouse; details: MIN-6 cells, 1 μM, 72 hours, 33.3 mM glucose
# Experimental: as §1
# MIN-6 cells = test: Proliferation of MIN-6 cells (cell counter); details: 0.3-3 μM, 72 hours, as the drug concentration increases
# Experimental: as §1
# JIMBIO cell counter (EXCEL HERO TECHNOLOGY LIMITED) was used to detect the effect on the proliferation of MIN-6 cells after 72 hours of the administration.
# [2] = tested on: Caspase9/7/3, PARP, BIM, BCL-XL; test: Effect on apoptosis signaling pathway of pancreatic β cells; format: cell-based, mouse; details: MIN-6 cells, 1 μM, 72 hours, 33.3 mM glucose
# Experimental: as §1
# [3] = tested on: autophosphorylation of AKT and ERK; test: Effect on proliferation-related signaling pathway of pancreatic β cells; format: cell-based, mouse; details: MIN-6 cells, 72 hours, 33.3 mM glucose
# Experimental: as §1
# [4] = read-out: MST1 (IC50/μM), ATP 50 μM, 37° C. 1 hour
# [5] = ATP 50 μM, 37° C. 1 hour, read-out: MST1 (IC50/μM)
# Sequence of MST1 (Q13043 whole entry): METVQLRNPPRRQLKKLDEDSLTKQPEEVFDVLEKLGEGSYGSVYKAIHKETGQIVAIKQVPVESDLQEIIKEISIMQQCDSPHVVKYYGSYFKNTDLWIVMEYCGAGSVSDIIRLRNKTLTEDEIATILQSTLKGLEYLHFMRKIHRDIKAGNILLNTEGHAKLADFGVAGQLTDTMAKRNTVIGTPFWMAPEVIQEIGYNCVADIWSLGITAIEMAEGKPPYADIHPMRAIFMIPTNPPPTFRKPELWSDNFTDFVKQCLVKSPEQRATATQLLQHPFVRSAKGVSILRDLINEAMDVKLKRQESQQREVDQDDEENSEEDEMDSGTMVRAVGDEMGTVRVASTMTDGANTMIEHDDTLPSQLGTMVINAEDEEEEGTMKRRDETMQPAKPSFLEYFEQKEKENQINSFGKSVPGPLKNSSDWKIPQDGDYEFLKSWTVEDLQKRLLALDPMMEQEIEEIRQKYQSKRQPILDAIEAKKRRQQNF
compound,measurement,setting,value
"CN1C(=O)C(c2c(F)cccc2F)N(C)c2nc(Nc3ccc(S(N)(=O)=O)cc3)ncc21 (centres unmarked) [Compound 1, 4-((7-(2,6-difluorophenyl)-5,8-dimethyl-6-oxo-5,6,7,8-tetrahydropteridin-2-yl)amino)benzsulfamide]",survival rate of the mice,C57BL/6 mice; 1 mg/kg intragastrically after APAP 600 mg/kg ip,80%
same,survival of the mice,C57BL/6 mice; 2 mg/kg intragastrically after APAP 600 mg/kg ip,all escaped from death
same,survival of the mice,C57BL/6 mice; 4 mg/kg intragastrically after APAP 600 mg/kg ip,all escaped from death
same,weight of mice,"C57BL/6 mice; after APAP 600 mg/kg ip, compound 1 po 1-4 mg/kg, XMU-MP-1 ip 1 mg/kg",can gradually recover
same,IC50,MST1; [4],0.023 µM
same,expression of PDX1,PDX1,promotes the expression of PDX1 to a certain extent
same,phosphorylation of the transcription factor PDX1,PDX1,a certain inhibitory effect
same,autophosphorylation of MST1,[1],significantly inhibit
same,cell proliferation,MIN-6 cells,can promote cell proliferation
same,cleavage of the four proteins Caspase9/7/3 and PARP,[2],inhibit the cleavage
same,expression of pro-apoptosis-related proteins such as BIM,[2],down-regulate
same,expression of the anti-apoptotic protein BCL-XL,[2],promote the expression
same,AKT autophosphorylation,[3],does not affect
same,ERK autophosphorylation,[3],can activate
"CN1C(=O)[C@H](c2ccccc2)N(C)c2nc(Nc3ccc(S(N)(=O)=O)cc3)ncc21 [Compound 4, (S)-4-((5,8-dimethyl-6-oxo-7-phenyl-5,6,7,8-tetrahydropteridin-2-yl)amino)benzsulfamide]",IC50,MST1; [4],0.197 µM
"CN1C(=O)C(c2ccccc2)N(C)c2nc(Nc3ccc(S(=O)(=O)NC4CC4)cc3)ncc21 (centres unmarked) [Compound 6, N-cyclopropyl-4-((5,8-dimethyl-6-oxo-7-phenyl-5,6,7,8-tetrahydropteridin-2-yl)amino)benzsulfamide]",IC50,MST1; [4],0.143 µM
"CN1C(=O)C2(CC2)N(C)c2nc(Nc3ccc(S(N)(=O)=O)cc3)ncc21 [Compound 7, 4-((5′,8′-dimethyl-6′-oxo-5′,8′-dihydro-6′H-spiro[cyclopropan-1,7′-pteridin]-2′-yl)amino)benzsulfamide]",IC50,MST1; [5],0.103 µM
"CN1C(=O)[C@@H](c2ccccc2)N(C)c2nc(Nc3ccc(S(N)(=O)=O)cc3)ncc21 [Compound 10, (R)-4-((5,8-dimethyl-6-oxo-7-phenyl-5,6,7,8-tetrahydropteridin-2-yl)amino)benzsulfamide]",IC50,MST1; [4],0.0987 µM
"CN1C(=O)C(c2cccc(F)c2)N(C)c2nc(Nc3ccc(S(N)(=O)=O)cc3)ncc21 (centres unmarked) [Compound 11, 4-((7-(3-fluorophenyl)-5,8-dimethyl-6-oxo-5,6,7,8-tetrahydropteridin-2-yl)amino)benzsulfamide]",IC50,MST1; [5],0.134 µM
"CN1C(=O)C2(CCCC2)N(C)c2nc(Nc3ccc(S(N)(=O)=O)cc3)ncc21 [Compound 14, 4-((5′,8′-dimethyl-6′-oxo-5′,8′-dihydro-6′H-spiro[cyclopentan-1,7′-pteridin]-2′-yl)amino)benzsulfamide]",IC50,MST1; [5],0.129 µM
"CN1C(=O)C2(CCC2)N(C)c2nc(Nc3ccc(S(N)(=O)=O)cc3)ncc21 [Compound 15, 4-((5′,8′-dimethyl-6′-oxo-5′,8′-dihydro-6′H-spiro[cyclobutan-1,7′-pteridin]-2′-yl)amino)benzsulfamide]",IC50,MST1; [5],0.141 µM
"CC(C)CC1C(=O)N(C)c2cnc(Nc3ccc(S(N)(=O)=O)cc3)nc2N1C (centres unmarked) [Compound 16, 4-((7-isobutyl-5,8-dimethyl-6-oxo-5,6,7,8-tetrahydropteridin-2-yl)amino)benzsulfamide]",IC50,MST1; [5],0.0767 µM
"CCCC1C(=O)N(C)c2cnc(Nc3ccc(S(N)(=O)=O)cc3)nc2N1C (centres unmarked) [Compound 17, 4-((5,8-dimethyl-6-oxo-7-propyl-5,6,7,8-tetrahydropteridin-2-yl)amino)benzsulfamide]",IC50,MST1; [5],0.206 µM
"CN1C(=O)C(C2CC2)N(C)c2nc(Nc3ccc(S(N)(=O)=O)cc3)ncc21 (centres unmarked) [Compound 19, 4-((7-cyclopropyl-5,8-dimethyl-6-oxo-5,6,7,8-tetrahydropteridin-2-yl)amino)benzsulfamide]",IC50,MST1; [5],0.137 µM
"CN1C(=O)C(c2cccs2)N(C)c2nc(Nc3ccc(S(N)(=O)=O)cc3)ncc21 (centres unmarked) [Compound 20, 4-((5,8-dimethyl-6-oxo-7-(thien-2-yl)-5,6,7,8-tetrahydropteridin-2-yl)amino)benzsulfamide]",IC50,MST1; [5],0.0879 µM
"CN1C(=O)C(c2ccccc2F)N(C)c2nc(Nc3ccc(S(N)(=O)=O)cc3)ncc21 (centres unmarked) [Compound 21, 4-((7-(2-fluorophenyl)-5,8-dimethyl-6-oxo-5,6,7,8-tetrahydropteridin-2-yl)amino)benzsulfamide]",IC50,MST1; [5],0.0753 µM
"CN1C(=O)C(c2ccccc2C(F)(F)F)N(C)c2nc(Nc3ccc(S(N)(=O)=O)cc3)ncc21 (centres unmarked) [Compound 22, 4-((5,8-dimethyl-6-oxo-7-(2-(trifluoromethyl)phenyl)-5,6,7,8-tetrahydropteridin-2-yl)amino)benzsulfamide]",IC50,MST1; [5],0.0563 µM
"Cc1ccccc1C1C(=O)N(C)c2cnc(Nc3ccc(S(N)(=O)=O)cc3)nc2N1C (centres unmarked) [Compound 25, 4-((5,8-dimethyl-6-oxo-7-(o-methylphenyl)-5,6,7,8-tetrahydropteridin-2-yl)amino)benzsulfamide]",IC50,MST1; [4],0.0227 µM
"CN1C(=O)C(c2c(F)cccc2F)N(C)c2nc(Nc3ccc(S(=O)(=O)NC4CC4)cc3)ncc21 (centres unmarked) [Compound 27, N-cyclopropyl-4-((7-(2,6-difluorophenyl)-5,8-dimethyl-6-oxo-5,6,7,8-tetrahydropteridin-2-yl)amino)benzsulfamide]",IC50,MST1; [4],0.113 µM
"CN1C(=O)C(c2c(F)cccc2F)N(C)c2nc(Nc3ccc(S(=O)(=O)N(C)C4CC4)cc3)ncc21 (centres unmarked) [Compound 32, N-cyclopropyl-4-((7-(2,6-difluorophenyl)-5,8-dimethyl-6-oxo-5,6,7,8-tetrahydropteridin-2-yl)amino)-N-methylbenzsulfamide]",IC50,MST1; [4],0.0316 µM
"CN1C(=O)C(c2c(F)cccc2F)N(C)c2nc(Nc3ccc(S(=O)(=O)NCC4CC4)cc3)ncc21 (centres unmarked) [Compound 33, N-(cyclopropylmethyl)-4-((7-(2,6-difluorophenyl)-5,8-dimethyl-6-oxo-5,6,7,8-tetrahydropteridin-2-yl)amino)benzsulfamide]",IC50,MST1; [5],0.0796 µM
"CCNS(=O)(=O)c1ccc(Nc2ncc3c(n2)N(C)C(c2c(F)cccc2F)C(=O)N3C)cc1 (centres unmarked) [Compound 38, 4-((7-(2,6-difluorophenyl)-5,8-dimethyl-6-oxo-5,6,7,8-tetrahydropteridin-2-yl)amino)-N-ethylbenzsulfamide]",IC50,MST1; [4],0.0516 µM
